From US20150126582A1, “Combination Treatment of Multiple Myeloma” (Sevion Therapeutics, Inc., priority 2012, published 2015) come the findings set out here.

One assay concerns RPMI 8226 myeloma cells. Put plainly: RPMI 8226 multiple myeloma subcutaneous tumors in SCID mice, 6 weeks of dosing. The note with it: for tumor growth inhibited compared to control nanoparticles: end of 6 weeks of dosing.
In assay [1] the test system is human myeloma tumors derived from RPMI 8226 cells. Put plainly: Additional study: RPMI 8226 myeloma tumors in mice, 2 cycles of treatment, 102 days. The assay is classed as in vivo. As to the method:
In an additional study, mice implanted with human myeloma tumors derived from RPMI 8226 cells were randomized into 4 groups and treated with control nanoparticles, or, either SNS01-T (0.375 mg/kg; i.v., twice per week), lenalidomide (50 mg/kg; i.p., 5× per week) or both. The mice received 2 cycles of treatment, 6 weeks and 5 weeks respectively, with an 11 day rest period between cycles. Mice, whose tumors were undetectable at the end of cycle 1, received no drug treatment in cycle 2 unless tumor reappeared. The mice were monitored for 2 weeks after the end of the second cycle of treatment. The total length of the study was 102 days.

Experimental for RPMI 8226 myeloma cells: SCID mice are injected subcutaneously with RPMI 8226 cells. […] Groups of six SCID/CB17 mice (3-5 weeks old) are injected with 12 million RPMI 8226 myeloma cells in 200 μL PBS in their right flank and treatment is initiated when the tumours reached a minimum size of 10 mm^3.
Control mice are injected intravenously two times per week with PEI complexes containing pCpG-mcs (empty vector) and control siRNA at a dose of 0.375 mg (nucleic acid)/kg. Mice receiving SNS01-T were injected intra-venously two times per week at 0.375 mg/kg. Mice treated with lenalidomide received 5 doses per week by intra-peritoneal injection of lenalidomide (Celgene) at doses of 15 mg/kg or 50 mg/kg. Mice receiving both SNS01-T and lenalidomide were dosed 2×/week with SNS01-T by intra-venous injection at 0.375 mg/kg and 5× per week with lenalidomide by intra-peritoneal injection at either 15 mg/kg or 50 mg/kg. […] Tumor volume is measured for all the mice in each group at least twice weekly.

`Nc1cccc2c1CN(C1CCC(=O)NC1=O)C2=O` (racemic) [lenalidomide, 3-(4-amino-oxo-1,3-dihydro-isoindol-2-yl)-piperidine-2,6-dione]: the “tumor growth inhibited compared to control nanoparticles” value with RPMI 8226 myeloma cells (lenalidomide 15 mg/kg i.p. 5 doses/week (alone, or with SNS01-T 0.375 mg/kg i.v. 2x/week)) is on record as 51%; in the assay with RPMI 8226 myeloma cells (lenalidomide 50 mg/kg i.p. 5 doses/week (alone, or with SNS01-T 0.375 mg/kg i.v. 2x/week)) it was 78%; in assay [1] (end of the second cycle of dosing, lenalidomide 50 mg/kg i.p. 5x per week (alone, or with SNS01-T 0.375 mg/kg i.v. twice per week)), 34%. In addition, in the assay with RPMI 8226 myeloma cells (end of 6 weeks, lenalidomide alone, 15 mg/kg or 50 mg/kg i.p. 5x/week), the “surviving animals with undetectable tumors” value is listed as “No surviving animals”. The median survival in the assay on RPMI 8226 myeloma cells (lenalidomide 15 mg/kg i.p. 5x/week) was found to be 53 days; in assay [1] (lenalidomide 50 mg/kg i.p. 5x per week, study length 102 days), 95 days.
